From patent US9370516B2 (Pfizer Inc., priority 2012, dated 2016)
pIC50, pKd, pKi: −log10 of the molar value. “And” between values parts separate entries of the source, which are not always exact repeats. Equal values may be shown once.

What was measured:
patient GHSR1a [1] = target: T1, patient GHSR1a (Homo sapiens, UniProt Q92847); details: pre-incubation 8 hours
Excerpt: (§1) The SPA format was utilized for high throughput screening of test compounds and filter binding served for more comprehensive binding characterization. In both formats test compound affinity is expressed as Ki value, defined as the concentration of compound required to decrease [^125I] ghrelin binding by 50% for a specific membrane batch at a given concentration of radioligand.

patient GHSR1a [2] = target: T1, patient GHSR1a; experiment: biochemical; details: for pKi: Human GHS-1aR Filter Ki
Procedure: as §1
Patient Ghrelin Filter Binding Assay
(§2) Ghrelin binding assays were performed in a final volume of 100 μl containing […] patient GHSR1a (HEK293 Tetracycline-Inducible cell line expressing the patient growth secretagogue receptor 1a; prepared as membranes) and 50 pM [^125I] ghrelin (Perkin Elmer Life Sciences, NEX-388), plus varying concentrations of test compound or vehicle.
(§3) Briefly, assays were prepared at room temperature in 96-well plates (Costar, 3357) containing 2 μl of test compound in DMSO (or DMSO as vehicle). Assays were initiated by addition of 23 μl assay buffer (50 mM HEPES, 10 mM MgCl2, 0.2% BSA, EDTA-free protease inhibitor tablets—1 tablet/50 ml buffer, pH 7.4), 25 μl 4 mg/ml hGHSR1a membrane and 50 μl of 100 pM [^125I] ghrelin, both in assay buffer.
(§4) The mixture was incubated for 90 minutes at room temperature followed by transfer to a 0.3% PEI-treated, 96-well glass fiber filtration plate (Perkin Elmer, 6005174). The mixture was suctioned dry with vacuum and immediately washed 3 times with 200 μl ice cold 50 mM Tris pH 7.5. Plates were allowed to dry overnight at room temperature and 30 μl Supermix scintillant (Perkin Elmer, 1200-439) is added to each well. The amount of receptor-ligand complex was determined by liquid scintillation counting using a 1450 Microbeta Trilux (Wallac).

mouse GHSR1a = mouse GHSR1a (Mus musculus, UniProt Q99P50); experiment: biochemical; details: Mouse GHS-1aR Filter Ki, pre-incubation 90 minutes
Sequence of mouse GHSR1a (Q99P50 whole entry): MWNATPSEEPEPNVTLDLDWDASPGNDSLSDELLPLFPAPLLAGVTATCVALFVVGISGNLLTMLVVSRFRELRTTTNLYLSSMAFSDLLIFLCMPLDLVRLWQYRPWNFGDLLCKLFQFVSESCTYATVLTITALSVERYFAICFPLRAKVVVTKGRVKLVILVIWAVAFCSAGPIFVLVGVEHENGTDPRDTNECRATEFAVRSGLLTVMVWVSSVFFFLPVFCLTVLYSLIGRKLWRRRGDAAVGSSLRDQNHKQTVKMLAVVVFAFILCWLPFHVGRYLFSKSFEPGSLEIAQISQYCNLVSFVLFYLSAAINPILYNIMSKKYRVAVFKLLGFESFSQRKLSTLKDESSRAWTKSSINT
Procedure: as §2, §3
as §4, with “(Wallac). […]” for “(Wallac).”

rat GHSR1a = rat GHSR1a (Rattus norvegicus, UniProt O08725); experiment: biochemical; details: Rat GHS-1aR Filter Ki, pre-incubation 90 minutes
Sequence of rat GHSR1a (O08725 whole entry): as the sequence (Q99P50 whole entry) above, with S30P, S249A counted along it
Procedure: as §2, §3
as §4, with “(Wallac). […]” for “(Wallac).”

dog GHSR1a = target: T2, dog GHSR1a (Canis lupus familiaris, UniProt A5HKU8); experiment: Radioligand binding filtration format assay, dog GHSR1a; details: pre-incubation 90 minutes; read-out: Dog GHS-1aR Filter Ki (converted)
T2 construct: dog (NM_001099945.1)
T2 sequence (A5HKU8 1-349): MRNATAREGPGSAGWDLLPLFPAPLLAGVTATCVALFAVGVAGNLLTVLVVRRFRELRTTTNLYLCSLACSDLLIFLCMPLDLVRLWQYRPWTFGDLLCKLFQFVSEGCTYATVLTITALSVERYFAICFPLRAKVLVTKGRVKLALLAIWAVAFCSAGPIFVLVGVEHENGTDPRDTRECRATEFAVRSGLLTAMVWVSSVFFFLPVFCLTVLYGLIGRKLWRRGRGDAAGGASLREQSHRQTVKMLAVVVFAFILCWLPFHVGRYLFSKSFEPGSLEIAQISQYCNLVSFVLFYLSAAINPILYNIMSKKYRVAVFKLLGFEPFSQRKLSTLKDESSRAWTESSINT
Procedure: as §2
(§5) Assays were initiated by addition of 23 μl assay buffer (50 mM HEPES, 10 mM MgCl2, 0.2% BSA, EDTA-free protease inhibitor tablets—1 tablet/50 ml buffer, pH 7.4), 25 μl 4 mg/ml hGHSR1a membrane and 50 μl of 100 pM [^125I] ghrelin, both in assay buffer.
(§6) Radioligand binding filtration format assays for dog (NM_001099945.1), monkey (XM_001084886.1), mouse (NM_177330), and rat (NM_032075) GHSR1a (all expressed in unique HEK293 Tetracycline-Inducible cell lines) were performed in an identical manner as described for patient GHSR1a except that the final amount of membrane to be used is as follows: 2 μg dog GHSR, 250 ng monkey GHSR, 200 ng mouse GHSR, or 125 ng rat GHSR.

monkey GHSR1a = target: T3, monkey GHSR1a (Macaca mulatta, UniProt F6Z4B1); experiment: Radioligand binding filtration format assay, monkey GHSR1a; details: pre-incubation 90 minutes; read-out: Primate GHS-1aR Filter Ki (converted)
T3 construct: monkey (XM_001084886.1)
T3 sequence (F6Z4B1 1-366): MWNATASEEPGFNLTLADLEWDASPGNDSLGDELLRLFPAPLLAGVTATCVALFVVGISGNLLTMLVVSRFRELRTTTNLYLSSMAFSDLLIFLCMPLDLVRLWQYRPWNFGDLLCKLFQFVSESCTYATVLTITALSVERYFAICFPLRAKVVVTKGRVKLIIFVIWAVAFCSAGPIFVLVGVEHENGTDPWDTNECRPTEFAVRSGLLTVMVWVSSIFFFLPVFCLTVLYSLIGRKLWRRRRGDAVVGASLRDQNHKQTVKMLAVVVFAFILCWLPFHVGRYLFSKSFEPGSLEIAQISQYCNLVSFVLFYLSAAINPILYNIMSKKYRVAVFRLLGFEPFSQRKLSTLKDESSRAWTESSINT
Procedure: as §2, §5, §6

patient GHSR1a [3] = target: T1, patient GHSR1a
Excerpt: The assay monitors the ligand-dependent exchange of GDP for GTP. GPCR activation results in an increase in fluorescence as receptor-bound GDP is replaced by Europium-labeled GTP.

[4] = target: broad panel of receptors, transporters, ion channels, and enzymes; experiment: Selectivity against a broad panel
Male Wistar Han rats = experiment: Locomotor activity after single oral dose; assay type: in vivo, rat
Procedure: (§7) Male Wistar Han rats were administered a single dose (1, 10, 50, or 150 mg/kg) of (R)-2-(2-methylimidazo[2,1-b]thiazol-6-yl)-1-(2-(5-(6-methylpyrimidin-4-yl)-2,3-dihydro-1H-inden-1-yl)-2,7-diazaspiro[3.5]nonan-7-yl)ethanone (Example 1) via oral gavage to assess the effects of Example 1 on locomotor activity over a 21 hour period (FIG. 1). Animals were habituated to the locomotor apparatus one hour prior to dosing. The lights were turned off at 4 pm and turned on at 4 am. Animals were dosed at 4 pm. Activity was monitored post-dose for 20 hours. Plasma, brains and CSF were taken from a satellite group of animals at Tmax (30 minutes post dosing).

[5] = Plasma and brain levels 30 minutes post dosing; assay type: in vivo, rat
Procedure: as §7

humans = experiment: Clinical studies B3301001, B3301002, B3301007; assay type: in vivo, human
Procedure: Patients were administered Example 1 as an extemporaneously prepared suspension in B3301001, B3301002, and the IR in B3301007 and as an extemporaneously prepared osmotic capsule (EPOC) in B3301007. […] Dose related increase in heart rate (up to ˜10 beats per minute) as well as attenuation of both ghrelin-induced growth hormone secretion and postprandial glucose were seen after acute dosing.

male rhesus monkeys = experiment: Primate study of sleep duration and food intake after evening dosing; assay type: in vivo, Macaca mulatta
Excerpt: In a primate study, the effect of Example 1 on sleep duration and food intake three hours post evening dosing Example 1 was studied dosing either once a day (QD) or twice a day (BID). Eight healthy adult (5.8 to 9.7 years of age) male rhesus monkeys, (Macaca mulatta, of Indian origin) were used. Animals were studied in parallel. According to a cross-over design, four of the animals received Example 1 (or Vehicle as a control) QD during the first phase of the study and BID during the second phase of the study. A reverse treatment schedule was used for the remaining four animals. When Example 1 was administered QD, the single dose was administered in the evening. Each treatment period lasted 28-30 consecutive days. Vehicle treatment lasted 10-14 days, immediately preceding the phase where Example 1 was administered. Animals were also kept in their sleep/circadian chambers to become familiar with them. Treatment was administered as a liquid solution, dispensed automatically using a timer-controlled pump. Throughout treatment periods, animals were maintained in light-controlled and sound attenuated sleep/circadian chambers, under constant conditions of dim light, in order to determine the intrinsic rhythms of sleep/activity and self-administered food intake. Sleep/activity cycle and sleep duration was documented using continuous on-line actigraphic image analysis technique, as described in Masuda et al., J Biol Rhythms. 2010 October; 25(5):361-71, Intrinsic activity rhythms in Macaca mulatta: their entrainment to light and melatonin. A software algorithm for actigraphic data analysis of sleep versus wakefulness in rhesus monkeys is explained in Zhdanova et al., J Biol Rhythms. 2011 April; 26(2):149-59. Aging of intrinsic circadian rhythms and sleep in a diurnal nonhuman primate, Macaca mulatta. Sleep onset and duration estimates were based on the comparisons between polysomnographic and actigraphic sleep in this species. Each circadian chamber was equipped with an individual touch-screen monitor, connected to an automatic pellet dispenser (ENV-203-1000, Med Associates Inc., St. Albans, Vt.). This allowed for ad libitum around the clock self-administration of 1 g food pellets (Nutritionally complete dustless precision pellets, Bio-Serv, Frenchtown, N.J.) via pressing a moving on-screen target. The time each pellet dispensed was documented. Data analysis was conducted using linear mixed model (SPSS), with the level of significance at p<0.05. Data were presented as group means (standard error of the means (SEM)) for each treatment condition: QD or BID administration of vehicle or Example 1.

[6] = 10 mg/kg oral gavage, 35-65 minutes post dosing
[7] = 50 mg/kg oral gavage, 35-65 minutes post dosing
[8] = QD and BID groups, N=8 per group, p<0.01
[9] = individual animal, evening QD, throughout the treatment period

T1 sequence (Q92847 whole entry): as the sequence (F6Z4B1 1-366) above, with A6P, E20D, R36Q, S59A, I163V counted along it

Cc1cc(-c2ccc3c(c2)CC[C@H]3N2CC3(CCN(C(=O)Cc4cn5cc(C)sc5n4)CC3)C2)ncn1 [Example 1, (R)-2-(2-methylimidazo[2,1-b]thiazol-6-yl)-1-(2-(5-(6-methylpyrimidin-4-yl)-2,3-dihydro-1H-inden-1-yl)-2,7-diazaspiro[3.5]nonan-7-yl)ethanone]
Human GHS-1aR SPA Ki (patient GHSR1a [1]): 2.24 ng/mL
pKi (patient GHSR1a [2]; pre-incubation 90 minutes): 8.60
pKi (patient GHSR1a [2]; pre-incubation 24 hours): 8.85
pKd (patient GHSR1a [2]; Human GHS-1aR Filter Motulsky Kd, Equilibrium 4.07 hours): 8.52
pKd (patient GHSR1a [2]; human Kd via Patient Ghrelin Filter Binding Assay): 8.52
pKi (mouse GHSR1a): 8.11
pKi (rat GHSR1a): 8.50
Ki (dog GHSR1a): 3.56 nM and 3.57 nM
Ki (monkey GHSR1a): 1.83 nM
functionality of the test compound (patient GHSR1a [3]): inverse agonist
pIC50 [4]: < 6.00
effect on locomotor activity compared to vehicle (Male Wistar Han rats; 1 mg/kg oral gavage, 35-65 minutes post dosing): no biologically or statistically significant effect
decrease in rearing (Male Wistar Han rats; [6]): 56%
decrease in total locomotor activity (Male Wistar Han rats; [6]): 60%
decrease in rearing (Male Wistar Han rats; [7]): 43%
decrease in total locomotor activity (Male Wistar Han rats; [7]): 48%
total activity compared to vehicle control (Male Wistar Han rats; 150 mg/kg oral gavage, 35-65 minutes post dosing): reduction in total activity which was statistically significant
total activity (Male Wistar Han rats; 20 hours post dosing): no statistically or biologically significant reductions in total activity
hyperactivity (Male Wistar Han rats; any dose (1-150 mg/kg)): did not induce hyperactivity
Brain (nM free) ([5]; 1 mg/kg oral): 1.6 nM free
Plasma (nM free) ([5]; 1 mg/kg oral): 18 nM free
Brain (nM free) ([5]; 10 mg/kg oral): 16 nM free
Plasma (nM free) ([5]; 10 mg/kg oral): 184 nM free
Brain (nM free) ([5]; 50 mg/kg oral): 80 nM free
Plasma (nM free) ([5]; 50 mg/kg oral): 856 nM free
Brain (nM free) ([5]; 150 mg/kg oral): 148 nM free
Plasma (nM free) ([5]; 150 mg/kg oral): 1704 nM free
dose related increase in heart rate (humans; after acute dosing): ≤ 10 beats per minute
ghrelin-induced growth hormone secretion (humans; after acute dosing): attenuation
postprandial glucose (humans; after acute dosing): attenuation
safety and tolerability in humans (humans; up to 100 mg BID for 14 days): safe and generally well tolerated
change in food intake within 3 hours of evening administration vs vehicle (male rhesus monkeys; [8]): significant decrease in food intake
change in sleep duration within 3 hours of evening treatment vs vehicle (male rhesus monkeys; [8]): significant increase in sleep duration
food intake soon after administration (male rhesus monkeys; [9]): significantly reduced food intake
sleep latency (male rhesus monkeys; [9]): significantly reduced sleep latency
